Measurements taken from patent US20220280526A1, “AGENT FOR THE TREATMENT OF PSORIASIS” (EBERHARD KARLS UNIVERSITAET TUEBINGEN MEDIZINISCHE FAKULTAET, priority 2019, published 2022).

Experiments:
[1] = tested on: STAT3 lysine methylation; experiment: Detection of methylated STAT3 by immunoprecipitation in HEK293T cells; format: cell-based; conditions: STAT3- and EZH2-overexpressing HEK293T cells, 1 h treatment
Method: HEK293T cells were transfected using HBS buffer and CaCl2. HaCaT cells were transfected with Lipofectamine 3000, according to the manufacturer's instructions (Thermo Fisher). 5 μg expression constructs were incubated with 3*10^5 cells for 4 h. 36-48 h post transfection, cells were harvested and analysed.
Western blot analysis was performed as described before. The following antibodies were used and purchased from Cell Signaling: anti-IκBζ (9244), anti-phospho-STAT3 at Tyr705 (9145), anti-phospho-STAT3 at Ser727 (9134), anti-STAT3 (12640), anti-p65 (8242), anti-EZH2 (5246), anti-pRB (phospho-RB at Ser807/811; 8516), anti-FoxM1 (5436), anti-H3 (4499), anti-CDK4 (12790), anti-CDK6 (13331), anti-CDK9 (2316), anti-cyclin D1 (2978), anti-cyclin D2 (3741), anti-cyclin D3 (2936), anti-cJUN (9165), anti-H3K27me3 (9733), anti-GAPDH (2118), anti-H3 (9715) and anti-β-actin (3700). Anti-β-Gal (sc377257) and anti-GFP (sc9996) were obtained from Santa Cruz Biotechnology. Anti-pEZH2 at T345 (61242) anti-pEZH2 at T487 (12820) were purchased from Active Motif and anti-pan-methyl-lysine antibody was purchased from Enzo (ADI-KAP-TF121-E). For detection of mouse IκBζ, a self-made antibody raised against peptides […] (SEQ ID NO:3) and […] (SEQ ID NO:4) was applied. […]

[2] = tested on: STAT3; experiment: STAT3 phosphorylation in primary human keratinocytes (immunoblot); format: cell-based; conditions: after stimulation with IL-36α
Text: (§1) HaCaT cells were maintained in DMEM with 10% FCS and antibiotics. Human primary keratinocytes were freshly isolated from foreskin and maintained in CnT-07S medium with gentamycin (CELLnTEC). Recombinant human IL-36α (aa 6-158) and mouse IL-36α (aa 6-160) were purchased from R&D Systems. Recombinant IL-17A (11340174), TNFα (11343013) and IL-1β (11340013) were ordered from Immunotools. Flagellin (vac-fla) and poly I:C (vac-pic) were purchased from Invivogen. In cell culture experiments, the cytokines were used at the following concentrations, as described previously: IL-36α (100 ng/mL), IL-17A (200 ng/mL), TNFα (10 ng/mL) and IL-1β (100 ng/mL). Flagellin was applied at 10 ng/mL and poly(I:C) was added at a final concentration of 100 ng/mL. […] When indicated, cells were starved for 2 h prior to cytokine treatment, by removing cell culture supplements from the growth medium.
(§2) Western blot analysis was performed as described before. […]

[3] = tested on: IκBζ expression; experiment: IκBζ expression in synchronized HaCaT cells stimulated with IL-36α; format: cell-based; conditions: 1 h IL-36α
Method: Synchronization of the cells with a double thymidine block was performed as described before. After the second thymidine block, cells were released in normal medium. At 0, 4, 10 and 14 h after release, cells were stimulated with IL-36α and/or abemaciclib for 1 h. Propidium iodide staining was performed by flow cytometry (LSRII, Becton Dickson) to detect the cell cycle phase at the time point of cell harvest.
Western blot analysis was performed as described before. The following antibodies were used and purchased from Cell Signaling: anti-IκBζ (9244), anti-phospho-STAT3 at Tyr705 (9145), anti-phospho-STAT3 at Ser727 (9134), anti-STAT3 (12640), anti-p65 (8242), anti-EZH2 (5246), anti-pRB (phospho-RB at Ser807/811; 8516), anti-FoxM1 (5436), anti-H3 (4499), anti-CDK4 (12790), anti-CDK6 (13331), anti-CDK9 (2316), anti-cyclin D1 (2978), anti-cyclin D2 (3741), anti-cyclin D3 (2936), anti-cJUN (9165), anti-H3K27me3 (9733), anti-GAPDH (2118), anti-H3 (9715) and anti-β-actin (3700). Anti-β-Gal (sc377257) and anti-GFP (sc9996) were obtained from Santa Cruz Biotechnology. Anti-pEZH2 at T345 (61242) anti-pEZH2 at T487 (12820) were purchased from Active Motif and anti-pan-methyl-lysine antibody was purchased from Enzo (ADI-KAP-TF121-E). For detection of mouse IκBζ, a self-made antibody raised against peptides […] (SEQ ID NO:3) and […] (SEQ ID NO:4) was applied.

[4] = tested on: EZH2-STAT3 interaction; experiment: Co-immunoprecipitation of EZH2 and STAT3 in HaCaT cells; format: cell-based; conditions: 30 min IL-36α
Method: Cells were lysed by mechanical disruption using standard lysis buffer (50 mM Tris-HCl pH 7.5, 150 mM NaCl, 1% NP-40, lx Protease inhibitor cocktail, Roche). Subsequently, lysates were sonicated for 5 minutes at high power (Bioruptor, Diagenode), followed by pre-clearing of the lysates with protein A/G PLUS agarose beads (Santa Cruz, sc-2003) for 1 h at 4° C. Precleared lysates were incubated either with antibodies specific for CDK4 (Cell Signaling, 12790), CDK6 (Sigma, HPA002637), EZH2 (Cell Signaling, 5246), STAT3 (MA1-13042, Thermo Fisher) or β-Gal antibody (sc-19119, Santa Cruz) as an IgG control, overnight at 4° C. For endogenous IPs immune complexes were precipitated with protein A/G PLUS agarose beads and eluted by 6×SDS-PAGE sample buffer.

[5] = tested on: STAT3, EZH2, CDK4 and CDK6 binding to the NFKBIZ promoter region; experiment: Chromatin immunoprecipitation at the NFKBIZ promoter in IL-36α-stimulated HaCaT cells; format: cell-based; conditions: 30 min IL-36α
[6] = tested on: EZH2; experiment: EZH2 phosphorylation in keratinocytes (immunoblot); format: cell-based, human; conditions: IL-36α- or IL-17A/TNFα-treated keratinocytes
Text: as §1, §2

[7] = tested on: NFKBIZ (IκBζ) promoter; experiment: Luciferase assay of NFKBIZ promoter activity in HaCaT cells; format: cell-based; conditions: IL-36α-stimulated HaCaT cells, 24 h
Method: Luciferase constructs were generated as described; Muller et al. (2018; loc. Cit.). 1*10^4 HEK293T cells were transfected for 24 h using HBS buffer and CaCl2 and a mixture of 400 ng luciferase vector and 100 ng TK-Renilla vector. For expression of other factors, the following concentrations were used: 70 ng p65, 200 ng cJUN, STAT3 or EZH2 constructs and 500 ng CDK4, CDK6 or cyclin D expression constructs (not shown). For transfection of HaCaT cells, 3*10^5 cells were transfected for 4 h using Lipofectamine 3000 and a mixture of 800 ng luciferase vector, 200 ng TK-Renilla vector and 4 μg expression or control plasmids according to the manufacturer's instructions (Thermo Fisher). 36 h after transfection, luciferase activity was measured with the Dual Luciferase Reporter Assay Kit (Promega). Expression of the reporter constructs was calculated as the fold induction over unstimulated transfected cells from data of three independent experiments.

Abemaciclib mesylate
lysine methylation of STAT3 [1]: abrogated
phosphorylation of STAT3 at threonine 727 (T727) [2]: remained unaffected
phosphorylation of STAT3 at tyrosine 705 (Y705) [2]: completely absent
IL-36α-triggered IκBζ induction in all phases of the cell cycle [3]: completely suppressed
interaction of EZH2 with STAT3 [4]: abrogate
recruitment of STAT3/EZH2/CDK4/6 multi-protein complex to the NFKBIZ promoter region [5]: abrogated
inducible phosphorylation of EZH2 at threonine 345 (T345) [6]: completely abrogated
expression of luciferase construct harboring the NFKBIZ (IκBζ) promoter [7]: abrogated
